Results reported in the NIST ThermoML archive (doi:10.1016/j.jct.2005.05.020).
Numbers after ± are expanded uncertainties.

Settings: 101.33 kPa, Liquid

CCCCCCC [heptane]
mass density (273.15 K): 700.67 ± 0.62 kg/m3 | mass density (278.15 K): 696.57 ± 0.62 kg/m3 | mass density (283.15 K): 692.4 ± 0.63 kg/m3 | mass density (288.15 K): 688.2 ± 0.64 kg/m3 | mass density (293.15 K): 683.99 ± 0.64 kg/m3 | mass density (298.15 K): 679.75 ± 0.65 kg/m3 | mass density (303.15 K): 675.49 ± 0.66 kg/m3 | mass density (308.15 K): 671.19 ± 0.66 kg/m3 | mass density (313.15 K): 666.87 ± 0.67 kg/m3 | mass density (318.15 K): 662.52 ± 0.68 kg/m3 | mass density (323.15 K): 658.13 ± 0.68 kg/m3 | mass density (328.15 K): 653.71 ± 0.69 kg/m3 | mass density (333.15 K): 649.24 ± 0.7 kg/m3 | mass density (338.15 K): 644.74 ± 0.71 kg/m3 | mass density (343.15 K): 640.19 ± 0.71 kg/m3 | mass density (348.15 K): 635.6 ± 0.72 kg/m3 | mass density (353.15 K): 630.95 ± 0.73 kg/m3 | mass density (358.15 K): 626.26 ± 0.74 kg/m3

CCCCCC [hexane]
mass density (273.15 K): 677.18 ± 0.66 kg/m3 | mass density (278.15 K): 672.79 ± 0.67 kg/m3 | mass density (283.15 K): 668.37 ± 0.67 kg/m3 | mass density (288.15 K): 663.91 ± 0.68 kg/m3 | mass density (293.15 K): 659.42 ± 0.69 kg/m3 | mass density (298.15 K): 654.89 ± 0.69 kg/m3 | mass density (303.15 K): 650.33 ± 0.7 kg/m3 | mass density (308.15 K): 645.73 ± 0.71 kg/m3 | mass density (313.15 K): 641.08 ± 0.72 kg/m3 | mass density (318.15 K): 636.38 ± 0.72 kg/m3 | mass density (323.15 K): 631.64 ± 0.73 kg/m3 | mass density (328.15 K): 626.84 ± 0.74 kg/m3 | mass density (333.15 K): 621.99 ± 0.75 kg/m3 | mass density (338.15 K): 617.07 ± 0.75 kg/m3

CCCCC [pentane]
mass density (273.15 K): 645.5 ± 0.72 kg/m3 | mass density (278.15 K): 640.7 ± 0.72 kg/m3 | mass density (283.15 K): 635.9 ± 0.73 kg/m3 | mass density (288.15 K): 631.04 ± 0.74 kg/m3 | mass density (293.15 K): 626.12 ± 0.74 kg/m3 | mass density (298.15 K): 621.14 ± 0.75 kg/m3 | mass density (303.15 K): 616.11 ± 0.76 kg/m3 | mass density (308.15 K): 611.01 ± 0.77 kg/m3
